# Assay results: patent US9028887B2, “Method improve spatial memory via pterostilbene administration” (The United States of America, as represented by the …, priority 2007, dated 2015)
# Experiments:
# weanling male F344 rats = details: Suh et al., 2007; cited from earlier work
# cyclooxygenase-2 = target: T1, cyclooxygenase-2 (Homo sapiens, UniProt P35354); details: Rimando et al., 2002; cited from earlier work
# T1 sequence (P35354 18-604): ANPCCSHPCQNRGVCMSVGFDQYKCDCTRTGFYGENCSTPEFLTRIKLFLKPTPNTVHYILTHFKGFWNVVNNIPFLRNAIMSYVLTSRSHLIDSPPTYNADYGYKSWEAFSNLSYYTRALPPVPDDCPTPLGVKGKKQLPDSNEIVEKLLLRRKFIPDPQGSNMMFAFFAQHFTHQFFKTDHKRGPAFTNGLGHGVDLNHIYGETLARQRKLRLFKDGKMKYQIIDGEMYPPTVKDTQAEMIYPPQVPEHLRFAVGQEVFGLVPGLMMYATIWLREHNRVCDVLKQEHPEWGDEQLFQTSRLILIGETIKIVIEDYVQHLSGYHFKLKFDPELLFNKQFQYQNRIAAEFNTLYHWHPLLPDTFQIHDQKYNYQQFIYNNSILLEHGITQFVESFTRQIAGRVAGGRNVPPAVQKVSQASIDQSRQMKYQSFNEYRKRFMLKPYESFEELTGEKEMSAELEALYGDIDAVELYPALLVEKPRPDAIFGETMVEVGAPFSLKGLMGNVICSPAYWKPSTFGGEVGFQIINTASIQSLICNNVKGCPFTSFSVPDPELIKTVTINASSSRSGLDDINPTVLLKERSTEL
# [1] = Pterostilbene in subject hippocampal tissue by GC-MS; type: in vivo, rat
# Experimental: Hippocampal brain tissue was extracted from subjects that were euthanized 2-3 weeks following Morris Water Maze testing. The tissue samples were stored at −80° C. and thawed in ice prior to extraction. Tissues were homogenized in 500 μL of phosphate buffer (pH 7.4) then centrifuged (7000 g, 4° C., 15 min). The supernatant was collected and homogenization was repeated. The combined supernatant was extracted with ethyl acetate (500 μL×2). The ethyl acetate extract was dried under a stream of nitrogen.
# The dried extract was treated with 30 μL of N,O-bis[trimethylsilyl]trifluoroacetamide:dimethylformamide (BSTFA:DMF, 1:1; Pierce Biotechnology, Inc., Rockford, Ill.) and heated at 70° C. for 40 min. The derivatized sample was used for analysis of pterostilbene by gas chromatography-mass spectrometry (GC-MS). GC-MS was performed on a JEOL GCMate II Instrument (JEOL USA Inc., Peabody, Mass.) using as a J&W DB-5 capillary column (0.25 mm internal diameter, 0.25 μm film thickness, 30 m length; Agilent Technologies, Foster City, Calif.). […] The carrier gas was ultrahigh purity helium, at 1 mL/min flow rate. […] Pterostilbene was determined and quantified from a reconstructed ion chromatogram using m/z 328, 313, 297 and 147. Quantitation was performed from calibration curve of a standard sample of pterostilbene (retention time, 12.5 min). […]
# [2] = tested on: 19-month-old male Fischer 344 rats; experiment: Morris Water Maze, working memory version, in aged rats on pterostilbene diet; type: in vivo, rat; details: for distance to find the platform, Trial 1 vs Trial 2: days 3 and 4; for latency to find the platform, Trial 1 vs Trial 2: days 3 and 4, ninth week
# Description: Forty-two 19-month-old male Fischer 344 rats were obtained from the NIA colony (Harlan Sprague Dawley, Indianapolis, Ind.). The rats were individually housed in stainless steel mesh suspended cages, provided food and water ad libitum, and maintained on a 12-hour light/dark cycle. The rats were given one week to adjust to their new environment, after which time they were weight matched and then randomly placed on one of three diets for 12-13 weeks total (n=14/group): control, low dose pterostilbene (0.004%, equivalent to 2.5 mg/kg body weight), or high dose pterostilbene (0.016%, equivalent to 10 mg/kg body weight). All animals were observed daily for clinical signs of disease.
# The pterostilbene diets were prepared at Harlan Teklad (Madison, Wis.) by adding crystalline pterostilbene to the control diet, of 40 mg/kg diet, 0.004% w/w for low dose, 160 mg/kg diet, 0.016% w/w for high dose. The amount of corn in the control diet was adjusted to compensate for the added volume of the pterostilbene. The rats were maintained on either the control or pterostilbene diet for eight weeks before motor testing and nine weeks before cognitive testing at 21 months.
# The Morris Water Maze (MWM) is a method to test spatial learning and memory of subjects. Developed by Richard Morris, the MWM is an age and diet sensitive learning paradigm that requires a subject to locate a hidden platform (10 cm in diameter) positioned below the surface (2 cm) of a circular pool of water (134 cm in diameter×50 cm in height, maintained at 23° C.) based on distal cues, and to remember its location from the previous trial. Accurate navigation is rewarded with escape from the water onto the platform, for which the subject uses distal cues such as posters, the experimenter, a computer, cage racks, to effectively locate. The working memory version of the MWM (Brandeis et al., 1989. Int J Neurosci. 48:29-69 Morris R., 1984. J Neurosci Methods. 11; 47-60.) was performed daily for four consecutive days during the ninth week of treatment, with a morning and an afternoon session, two trials each session, with a 10 minute inter-trial interval between the two trials. Rats were tested in a random manner, with the restriction that one subject from each group be tested in succession. At the beginning of each trial, the subject was gently immersed in the water at one of four randomized start locations. […] Once the subject reached the platform, it remained there for 15 sec (Trial 1; reference memory or acquisition trial). The subject was returned to its home cage between trials (10 min). Trial 2 (the working memory or retrieval trial) used the same platform location and start position as Trial 1. Performances were videotaped and analyzed with image tracking software (HVS Image, UK), which allows measurements of latency (sec) time to find the platform), path length (cm), and swimming speed (cm/sec; […]). A detailed description of the maze and the paradigm used is disclosed in Shukitt-Hale et al., 1998. Experimental Gerontology, 33:615-624, and incorporated herein by reference.
# [3] = high dose diet 0.016% (10 mg/kg body weight)
compound,measurement,setting,value
"COc1cc(/C=C/c2ccc(O)cc2)cc(OC)c1 [pterostilbene, trans-3,5-dimethoxy-4′-hydroxystilbene]",azoxymethane-induced colonic aberrant crypt foci growth,weanling male F344 rats,suppressed azoxymethane-induced colonic aberrant crypt foci growth
same,inhibition of cyclooxygenase-2,cyclooxygenase-2,weak inhibition
same,hippocampal pterostilbene,"[1]; high dose diet 0.016% (10 mg/kg), 12-13 weeks on diet",1.352±0.465 ng/tissue sample
same,hippocampal pterostilbene detectability,[1]; low dose diet 0.004% (2.5 mg/kg),only detectable in the high dose pterostilbene group
same,latency or distance to find the platform between the diet groups,"[2]; Trial 1 or Trial 2, low and high dose vs control diet",no differences in latency or distance to find the platform
same,"distance to find the platform, Trial 1 vs Trial 2",[2]; [3],significant (p<0.05) differences in distance
same,"latency to find the platform, Trial 1 vs Trial 2",[2]; [3],significant (p<0.05) difference in latency
same,"distance to find the platform, Trial 1 vs Trial 2",[2]; low dose diet 0.004% (2.5 mg/kg body weight),significant (p<0.05) differences in distance
same,"latency to find the platform, Trial 1 vs Trial 2","[2]; low dose diet 0.004% (2.5 mg/kg body weight), p=0.09",tended to improve from Trial 1 to Trial 2
same,spatial memory performance compared to control diet fed group,[2]; pterostilbene diets (low and high dose),improved spatial memory performance
